The text below walks through data of US4762840A, “Pyrimido[2,1-b]benzothiazoles having antiallergic activity” (Roussel Uclaf, priority 1984, dated 1988).

For orientation: IC50 means the concentration needed to halve the response being measured.

The assay deals with lungs. In words: Antigen-induced elevation of lung perfusion pressure (isolated perfused sensitized lung, ovalbumen). Set-up: species or system guinea pig (Dunkin Hartley). The note with it: Cavia porcellus; perfused lungs of ovalbumen-sensitized guinea pigs; compound in krebs fluid 30 minutes prior to second antigen dose (15 μg ovalbumen); at least four lungs per concentration; read-out: IC50 (inhibition of antigen induced broncho-constriction). As for the experimental part:
Antigen-induced elevation of lung perfusion pressure
Male Dunkin Hartley guinea pigs (Porcellus) weighing between 450-700 g were used (four per test concentration) and were housed in cages. The animals were sensitized by two weekly exposures to 1% W/V aerosol ovalbumen. The animals were anaesthetized with 2.5 mg/kg diazepam i.p. and 1 ml/kg Hyponorm i.m. Following anaethesia, the animals were exsanguinated by severing both carotid arteries and the chest was opened and the lungs removed, split into two at the carina and both cannulated via the main lobar bronchus and connected to a perfusion system. The lungs were perfused with aerated krebs fluid (95% O2 :5% CO2) at 37° C. and 5 μg in 0.1 ml Ovalbumen was injected through an injection port proximal to each lung. Elevation of perfusion pressure by the antigen was recorded and sixty minutes later, 15 μg of ovalbumen were administered. The test compounds were added to the krebs fluid reservoir thirty minutes prior to the second antigen dose. For each weekly batch of animals used, control measurements were made without treatment (n=10 ). The second antigen response was expressed as a percentage of the first. For each test, at least four lungs from four different animals were used per concentration. The percentage inhibition of antigen induced broncho-constriction was calculated.

Each structure is given as a SMILES string. Some results are limits rather than exact numbers.

On to `CCCc1cc(=O)nc2sc3cc(CC(=O)OCC)ccc3n12` [Example 17, Ethyl 2-oxo-4-n-propyl-2H-pyrimido[2,1-b]benzothiazole-8-acetate], for which the half-inhibitory concentration (IC50) fell in the range of 1 to 10 µM.
In the case of `O=C(Cc1ccc2c(c1)sc1nc(=O)cc(-c3ccccc3)n12)N1CCOCC1` [Example 46, 1-(N-morpholino)-2-(2-oxo-4-phenyl-2H-pyrimido[2,1-b]benzothiazole-8-yl)-ethanone] it was > 100 µM; in that of `CCOC(=O)C(c1ccc2c(c1)sc1nc(=O)cc(-c3ccccc3)n12)C(C)C` (stereo not drawn) [Example 33, Ethyl α-isopropyl-4-phenyl-2-oxo-2H-pyrimido[2,1-b]benzothiazole-8-acetate], 10 to 100 µM.
In the case of `CCOC(=O)Cc1ccc2c(c1)sc1nc(=O)cc(CC)n12` [Example 16, Ethyl 4-ethyl-2-oxo-2H-pyrimido[2,1-b]benzothiazole-8-acetate] it was 100 µM; in that of `CN(C)C(=O)Cc1ccc2c(c1)sc1nc(=O)cc(-c3ccccc3)n12` [Example 44, N,N-dimethyl-2-oxo-4-phenyl-2H-pyrimido[2,1-b]benzothiazole-8-acetamide], 10 to 100 µM.
In the case of `CCCC(C(=O)OCC)c1ccc2c(c1)sc1nc(=O)cc(-c3ccccc3)n12` (stereo not drawn) [Example 32, Ethyl α-propyl-4-phenyl-2-oxo-2H-pyrimido[2,1-b]benzothiazole-8-acetate] it was 1 µM.
